Source: the NIST ThermoML archive (doi:10.1016/j.tca.2014.03.033)

Test: molar heat capacity at constant pressure
Details: 101.33 kPa, Crystal, Vacuum adiabatic calorimetry

O=P([O-])([O-])[O-].O=P([O-])([O-])[O-].O=P([O-])([O-])[O-].[K+].[Th+4].[Th+4] [potassium dithorium trisphosphate]
Details | molar heat capacity at constant pressure [J/K/mol]
4 K | 0.316
5 K | 0.395
6 K | 0.4889
7 K | 0.5352
8 K | 0.4432
9 K | 0.3222
10 K | 0.3252
15 K | 2.606
20 K | 6.715
25 K | 12.67
30 K | 19.97
35 K | 28.47
40 K | 37.38
45 K | 46.43
50 K | 56.01
60 K | 73.35
70 K | 91.89
80 K | 109.4
90 K | 125.4
100 K | 140
110 K | 153.5
120 K | 166.2
130 K | 178
140 K | 189.2
150 K | 199.8
160 K | 209.9
170 K | 219.6
180 K | 229
190 K | 238.2
200 K | 247.3
210 K | 256
220 K | 264.2
230 K | 271.8
240 K | 278.6
250 K | 284.7
260 K | 290.3
270 K | 295.7
273.15 K | 297.5
280 K | 301.3
290 K | 307.4
